Reference: patent US11230555B2, “Bicyclic RORγ modulators” (Escalier Biosciences B.V., priority 2018, dated 2022)

Biological target: T1, RORγt (Homo sapiens, UniProt P51449)
T1 construct: purchased reporter-cell kit
T1 sequence (P51449 269-508 limits assumed): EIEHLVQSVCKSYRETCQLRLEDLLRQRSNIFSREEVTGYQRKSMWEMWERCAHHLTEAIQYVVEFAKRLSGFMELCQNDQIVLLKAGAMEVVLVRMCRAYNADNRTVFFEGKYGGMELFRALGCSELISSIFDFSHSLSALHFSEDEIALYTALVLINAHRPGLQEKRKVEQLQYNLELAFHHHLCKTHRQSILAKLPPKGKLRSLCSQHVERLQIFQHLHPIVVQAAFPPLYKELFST
Test: Gal4 ligand binding assay (RORγt Gal fusion reporter assay)
Format: cell-based
Details: inverse agonists, luciferase reporter, 24h
Procedure: Compounds of the present invention were tested in a human RORγ ligand binding assay using a commercially available cell based ligand binding reporter assay in 96-well format (Cat #IB04001, INDIGO Biosciences, State College, Pa.). The N-terminal DNA binding domains (DBD) of the native RORγ and RORγt receptors have been substituted with that of the yeast GAL4-DBD and stably transfected in […] cells that also stably express luciferase under the regulation by upstream activation sequence of yeast Gal4. These cells constitutively express high level RORγ activity due to binding of endogenous co-factors. Both agonist and inverse agonist activity can be detected. The assay was performed according to kit manufacturer's instructions as follows. 10 mM compound stocks were diluted serially 1:3 with DMSO and further diluted with provided media to generate 10 titration points from 60 μM to 3 nM. These treatment conditions were added to the plates as 2× media in 100 μL volume. Each plate includes a positive control with 10 titration points as well as 6negative control wells with vehicle only, with final DMSO concentration of 0.2%. RORγ reporter cells were rapidly thawed and added to the plates in 100 μL volume. The plates were incubated for 24h in a 37° C. humidified 5% CO2incubator. Media was removed before the addition of room temperature luciferous detection substrate. After 5 minute incubation, relative light units (RLUs) were quantified using a plate reading luminometer. Data was normalized to positive control wells with only […]. Before establishing internal controls, ursolic acid was used as control.

SMILES | IC50 [nM]
CCc1cc(CN2CC3CCC(C2)N3S(C)(=O)=O)ncc1-c1ccc(C(O)(C(F)(F)F)C(F)(F)F)cc1Cl [Example 4, 2-(3-chloro-4-(4-ethyl-6-((8-(methylsulfonyl)-3,8-diazabicyclo[3.2.1]octan-3-yl)methyl)pyridin-3-yl)phenyl)-1,1,1,3,3,3-hexafluoropropan-2-ol] | 50 to 250
CCc1cc(CN2CC3CCC(C2)N3S(C)(=O)=O)cc(F)c1-c1ccc(C(O)(C(F)(F)F)C(F)(F)F)cc1 [Example 16, 2-(2′-ethyl-6′-fluoro-4′-((8-(methylsulfonyl)-3,8-diazabicyclo[3.2.1]octan-3-yl)methyl)-[1,1′-biphenyl]-4-yl)-1,1,1,3,3,3-hexafluoropropan-2-ol] | < 50
Cc1cc(CN2CC3CCC(C2)N3S(C)(=O)=O)ccc1-c1ccc(C(O)(C(F)(F)F)C(F)(F)F)cc1 [Example 73, 1,1,1,3,3,3-hexafluoro-2-(2′-methyl-4′-((8-(methylsulfonyl)-3,8-diazabicyclo[3.2.1]octan-3-yl)methyl)-[1,1′-biphenyl]-4-yl)propan-2-ol] | 50 to 250
CCCS(=O)(=O)N1C2CCC1CN(Cc1ccc(-c3ccc(C(O)(C(F)(F)F)C(F)(F)F)cc3)c(C)c1)C2 [Example 68, 1,1,1,3,3,3-hexafluoro-2-(2′-methyl-4′-((8-(propylsulfonyl)-3,8-diazabicyclo[3.2.1]octan-3-yl)methyl)-[1,1′-biphenyl]-4-yl)propan-2-ol] | > 250
Cc1cc(CN2CC3CCC(C2)C3NS(C)(=O)=O)ccc1-c1ccc(C(O)(C(F)(F)F)C(F)(F)F)cc1 (stereo not drawn) [Example 46, N-(3-((4′-(1,1,1,3,3,3-hexafluoro-2-hydroxypropan-2-yl)-2-methyl-[1,1′-biphenyl]-4-yl)methyl)-3-azabicyclo[3.2.1]octan-8-yl)methanesulfonamide] | > 250
CCc1cc(CN2CC3CCC(C2)N3S(C)(=O)=O)ccc1-c1ccc(C(O)(C(F)(F)F)C(F)(F)F)cc1Cl [Example 27, 2-(2-chloro-2′-ethyl-4′-((8-(methylsulfonyl)-3,8-diazabicyclo[3.2.1]octan-3-yl)methyl)-[1,1′-biphenyl]-4-yl)-1,1,1,3,3,3-hexafluoropropan-2-ol] | < 50
COCC(=O)N1C2CCC1CN(Cc1ccc(-c3ccc(C(O)(C(F)(F)F)C(F)(F)F)cc3)c(C)c1)C2 [Example 54, 1-(3-((4′-(1,1,1,3,3,3-hexafluoro-2-hydroxypropan-2-yl)-2-methyl-[1,1′-biphenyl]-4-yl)methyl)-3,8-diazabicyclo[3.2.1]octan-8-yl)-2-methoxyethan-1-one] | 50 to 250
OC(c1ccc(-c2ccc(CN3CC4CCC(C3)N4Cc3ccncc3)cc2Cl)cc1)(C(F)(F)F)C(F)(F)F [Example 56, 2-(2′-chloro-4′-((8-(pyridin-4-ylmethyl)-3,8-diazabicyclo[3.2.1]octan-3-yl)methyl)-[1,1′-biphenyl]-4-yl)-1,1,1,3,3,3-hexafluoropropan-2-ol] | < 50
Cc1cc(CN2CC3CCC(C2)N3Cc2ccncn2)ccc1-c1ccc(C(O)(C(F)(F)F)C(F)(F)F)cc1 [Example 47, 1,1,1,3,3,3-hexafluoro-2-(2′-methyl-4′-((8-(pyrimidin-4-ylmethyl)-3,8-diazabicyclo[3.2.1]octan-3-yl)methyl)-[1,1′-biphenyl]-4-yl)propan-2-ol] | < 50
CCc1cc(CN2CC3CCC(C2)N3S(C)(=O)=O)c(F)c(F)c1-c1ccc(C(O)(C(F)(F)F)C(F)(F)F)cc1C [Example 29, 2-(6′-ethyl-2′,3′-difluoro-2-methyl-4′-((8-(methylsulfonyl)-3,8-diazabicyclo[3.2.1]octan-3-yl)methyl)-[1,1′-biphenyl]-4-yl)-1,1,1,3,3,3-hexafluoropropan-2-ol] | < 50
Cc1cc(CN2CC3CCC(C2)N3S(=O)(=O)C2CC2)ccc1-c1ccc(C(O)(C(F)(F)F)C(F)(F)F)cc1 [Example 64, 2-(4′-((8-(cyclopropylsulfonyl)-3,8-diazabicyclo[3.2.1]octan-3-yl)methyl)-2′-methyl-[1,1′-biphenyl]-4-yl)-1,1,1,3,3,3-hexafluoropropan-2-ol] | 50 to 250
CS(=O)(=O)N1C2CCC1CN(Cc1ccc(-c3ccc(C(O)(C(F)(F)F)C(F)(F)F)cc3)c(C(F)(F)F)c1)C2 [Example 57, 1,1,1,3,3,3-hexafluoro-2-(4′-((8-(methylsulfonyl)-3,8-diazabicyclo[3.2.1]octan-3-yl)methyl)-2′-(trifluoromethyl)-[1,1′-biphenyl]-4-yl)propan-2-ol] | 50 to 250
CC(C)c1cc(CN2CC3CCC(C2)N3S(C)(=O)=O)ccc1-c1ccc(C(O)(C(F)(F)F)C(F)(F)F)cc1Cl [Example 22, 2-(2-chloro-2′-isopropyl-4′-((8-(methylsulfonyl)-3,8-diazabicyclo[3.2.1]octan-3-yl)methyl)-[1,1′-biphenyl]-4-yl)-1,1,1,3,3,3-hexafluoropropan-2-ol] | 50 to 250
Cc1cc(CN2CC3CCC(C2)N3Cc2ccnnc2)ccc1-c1ccc(C(O)(C(F)(F)F)C(F)(F)F)cc1 [Example 51, 1,1,1,3,3,3-hexafluoro-2-(2′-methyl-4′-((8-(pyridazin-4-ylmethyl)-3,8-diazabicyclo[3.2.1]octan-3-yl)methyl)-[1,1′-biphenyl]-4-yl)propan-2-ol] | < 50
CCc1cc(CN2C3CCC2CN(S(C)(=O)=O)C3)ccc1-c1ccc(C(O)(C(F)(F)F)C(F)(F)F)cc1 [Example 6, 2-(2′-ethyl-4′-((3-(methylsulfonyl)-3,8-diazabicyclo[3.2.1]octan-8-yl)methyl)-[1,1′-biphenyl]-4-yl)-1,1,1,3,3,3-hexafluoropropan-2-ol] | 50 to 250
Cc1cc(CN2CC3CCC(C2)N3S(=O)(=O)c2ccc(F)cc2)ccc1-c1ccc(C(O)(C(F)(F)F)C(F)(F)F)cc1 [Example 62, 1,1,1,3,3,3-hexafluoro-2-(4′-((8-((4-fluorophenyl)sulfonyl)-3,8-diazabicyclo[3.2.1]octan-3-yl)methyl)-2′-methyl-[1,1′-biphenyl]-4-yl)propan-2-ol] | > 250
Cc1cc(CN2CC3CCC2CN3Cc2ccncc2)ccc1-c1ccc(C(O)(C(F)(F)F)C(F)(F)F)cc1 (stereo not drawn) [Example 76, 1,1,1,3,3,3-hexafluoro-2-(2′-methyl-4′-((5-(pyridin-4-ylmethyl)-2,5-diazabicyclo[2.2.2]octan-2-yl)methyl)-[1,1′-biphenyl]-4-yl)propan-2-ol] | 50 to 250
CCc1cc(CN2CC3CCC(C2)N3S(C)(=O)=O)c(F)cc1-c1ccc(C(O)(C(F)(F)F)C(F)(F)F)cc1Cl [Example 19, 2-(2-chloro-2′-ethyl-5′-fluoro-4′-((8-(methylsulfonyl)-3,8-diazabicyclo[3.2.1]octan-3-yl)methyl)-[1,1′-biphenyl]-4-yl)-1,1,1,3,3,3-hexafluoropropan-2-ol] | < 50
Cc1cc(C(O)(C(F)(F)F)C(F)(F)F)ccc1-c1cc(F)c(CN2CC3CCC(C2)N3S(C)(=O)=O)cc1C(C)C [Example 20, 1,1,1,3,3,3-hexafluoro-2-(5′-fluoro-2′-isopropyl-2-methyl-4′-((8-(methylsulfonyl)-3,8-diazabicyclo[3.2.1]octan-3-yl)methyl)-[1,1′-biphenyl]-4-yl)propan-2-ol] | 50 to 250
CCc1c(F)c(CN2CC3CCC(C2)N3S(C)(=O)=O)cc(F)c1-c1ccc(C(O)(C(F)(F)F)C(F)(F)F)cc1C [Example 30, 2-(2′-ethyl-3′,6′-difluoro-2-methyl-4′-((8-(methylsulfonyl)-3,8-diazabicyclo[3.2.1]octan-3-yl)methyl)-[1,1′-biphenyl]-4-yl)-1,1,1,3,3,3-hexafluoropropan-2-ol] | < 50
CCc1cc(CN2[C@@H]3COC[C@H]2CN(S(C)(=O)=O)C3)ccc1-c1ccc(C(O)(C(F)(F)F)C(F)(F)F)cc1 [Example 8, 2-(2′-ethyl-4′-(((1R,5S)-7-(methylsulfonyl)-3-oxa-7,9-diazabicyclo[3.3.1]nonan-9-yl)methyl)-[1,1′-biphenyl]-4-yl)-1,1,1,3,3,3-hexafluoropropan-2-ol] | 50 to 250
Cc1cc(CN2C3CCC2CN(Cc2ccc(-c4ccc(C(O)(C(F)(F)F)C(F)(F)F)cc4)c(Cl)c2)C3)ccn1 [Example 48, 2-(2′-chloro-4′-((8-((2-methylpyridin-4-yl)methyl)-3,8-diazabicyclo[3.2.1]octan-3-yl)methyl)-[1,1′-biphenyl]-4-yl)-1,1,1,3,3,3-hexafluoropropan-2-ol] | 50 to 250
CCc1cc(C(O)(C(F)(F)F)C(F)(F)F)ccc1-c1ccc(CN2CC3CCC(C2)N3S(C)(=O)=O)cc1C [Example 26, 2-(2-ethyl-2′-methyl-4′-((8-(methylsulfonyl)-3,8-diazabicyclo[3.2.1]octan-3-yl)methyl)-[1,1′-biphenyl]-4-yl)-1,1,1,3,3,3-hexafluoropropan-2-ol] | < 50
CCS(=O)(=O)N1C2CCC1CN(Cc1ccc(-c3ccc(C(O)(C(F)(F)F)C(F)(F)F)cc3)c(C)c1)C2 [Example 69, 2-(4′-((8-(ethylsulfonyl)-3,8-diazabicyclo[3.2.1]octan-3-yl)methyl)-2'-methyl-[1,1′-biphenyl]-4-yl)-1,1,1,3,3,3-hexafluoropropan-2-ol] | > 250
